Experiments:
[1] = DPPH radical scavenging activity assay; conditions: test sample 500 µM, DPPH 0.18 mM, 30 min in the dark
Method: 2.11. DPPH Radical Scavenging Activity Assay
The DPPH radical scavenging activities of analogs 1–8 were investigated as previously described with minor modification. L-Ascorbic acid was used as a positive control. In brief, 20 µL of analogs (5 mM) in DMSO or 5 mM L-ascorbic acid in distilled water were mixed with 180 µL of 0.2 mM DPPH in methanol in a 96-well microplate. After the microplate had been stored in the dark for 30 min, optical densities (ODs) were measured at 517 nm using a microplate reader (VersaMax®, Molecular Devices, Sunnyvale, CA, USA). DPPH radical scavenging activities were determined using the following formula:DPPH radical scavenging activity (%) = 100 × (Ac − As)/Ac(1) where Ac indicates the optical density of the non-treated control and As indicates the optical density of test sample. Experiments were conducted independently 3 times.
There is a possibility that compounds with antioxidant properties inhibit the oxidations of tyrosinase substrates, such as L-tyrosine and L-dopa, without interacting with the tyrosinase. Melanin production requires many oxidative processes, including the conversion of L-tyrosine to dopaquinone via L-dopa. Therefore, compounds with antioxidant activity have the potential to inhibit melanogenesis. DPPH (2,2-diphenyl-1-picrylhydrazyl) contains a free radical, and DPPH assays are commonly used to assess antioxidant activity. In this experiment, L-ascorbic acid (an antioxidant) was used as a positive control. The assay was conducted at a test sample and L-ascorbic acid concentration of 500 µM and a DPPH concentration of 0.18 mM. After standing test sample/DPPH mixtures for 30 min in the dark, optical densities were measured to evaluate radical scavenging activities.

[2] = system: B16F10 murine melanoma cells; experiment: B16F10 cell viability (EZ-Cytox assay); type: cell-based
Method: 2.8. Viabilities of B16F10 Murine Melanoma Cells Treated with Analogues 2 or 3
The cytotoxic effects of analogs 2 and 3 were examined using B16F10 murine melanoma cells, as previously described. Cell viabilities were determined using the EZ-Cytox cell viability assay kit (Daeil Lab Service Co. Ltd., Seoul, Korea). Briefly, B16F10 cells (density 1 × 10^4 cells/well) were added to the wells of a 96-well microplate and cultured in a humidified 5% CO2 atmosphere at 37 °C for 24 h. Cells were then exposed to analogs 2 or 3 at 0, 1, 2, 5, 10, or 20 µM and incubated in a humidified 5% CO2 atmosphere for 24, 48, or 72 h at 37 °C. At these time points, cells were exposed to 10 µL of EZ-Cytox solution and incubated for 2 h at 37 °C. Optical densities of wells were then measured at 450 nm using a microplate reader (VersaMax®, Molecular Devices, Sunnyvale, CA, USA) to assess cell viability. Experiments were conducted independently 3 times.
Since analogs 2 and 3 had potent inhibitory effects on mushroom tyrosinase, they were subjected to B16F10 murine melanoma cytotoxicity assays. Initially, the cytotoxicities of 2 and 3 were investigated at concentrations of 0, 1, 2, 5, 10, and 20 µM using the EZ-Cytox cell viability assay (EZ-3000; DoGenBio, Seoul, Korea). Cell viability was measured after treatment for 24, 48, or 72 h (Figure 6).

mushroom tyrosinase [3] = experiment: Mushroom tyrosinase inhibition in the presence of L-dopa; type: biochemical; conditions: L-dopa as substrate
mushroom tyrosinase [4] = experiment: Kinetic studies on mushroom tyrosinase inhibition (Lineweaver–Burk and Dixon plots, L-tyrosine); type: biochemical; conditions: for mode of mushroom tyrosinase inhibition: L-tyrosine as substrate; for Ki: mushroom tyrosinase
Method: 2.6. Kinetic Studies on Mushroom Tyrosinase Inhibition by Analogues 2 and 3
Lineweaver–Burk plots of analogues 2 and 3 were used to determine modes of mushroom tyrosinase inhibition in the presence of L-tyrosine as substrate. Briefly, 20 µL of an aqueous mushroom tyrosinase solution (200 units/mL), and 170 µL of an aqueous solution consisting of L-tyrosine at various concentrations (final concentrations: 0, 1, 2, 4, 8, or 16 mM), and sodium phosphate buffer (pH 6.5, final concentration: 14.7 mM) were added to the wells of a 96-well microplate. Subsequently, analogues 2 and 3 at four different concentrations (10 µL; final concentrations 0, 5, 10, or 20 µM in DMSO solution for 2, and concentrations of 0, 1, 2, or 4 µM in DMSO solution for 3) were added to wells. Initial rates of dopachrome formation were determined by measuring changes in absorbance at 475 nm per min (ΔOD475/min) using a microplate reader (VersaMax®, Molecular Devices, Sunnyvale, CA, USA). Maximum velocities (Vmax) were calculated from Lineweaver–Burk plots obtained using six different L-tyrosine concentrations. The modes of mushroom tyrosinase inhibition by the analogs were determined using the locations of plot convergence points.
Lineweaver–Burk double reciprocal plots were used to analyze enzyme’s inhibitory mechanisms. Kinetic studies were conducted using four different concentrations of analogs 2 (0, 5, 10, or 20 μM) and 3 (0, 1, 2, or 4 μM) in the presence of L-tyrosine at five different concentrations (1, 2, 4, 8, or 16 mM).

[5] = ROS scavenging activity assay (DCFH-DA/esterase, SIN-1); conditions: SIN–1 10 µM; 5, 10, 20 µM
Method: 2.13. ROS Scavenging Activity Assay
The ROS scavenging activities of analogs 1–8 and Troloxwere determined as previously described by Ali et al. and Lebel and Bondy. Briefly, 2.5 mM DCFH-DA (2’,7’-dichlorodihydrofluorescein diacetate) (Molecular Probes, Eugene, OR, USA) solution was mixed with esterase (1.5 units/mL) in 50 mM phosphate buffer (pH 7.4), held for 30 min at 37 °C, and keep on ice in the dark until required. Tested compounds (10 µL; final concentrations: 5, 10, and 20 µM) dissolved in DMSO and SIN-1 (3-morpholinosydnonimine) (10 µM) and 180 µL of phosphate buffer in the wells of a black 96-well plate for 30 min. The 50 µL of DCFH-DA-esterase mixture (20 µM) was added. Fluorescence intensities of oxidized DCFH (DCF or 2′,7′-dichlorofluorescein) were measured using a microplate reader (Berthold Advances GmbH & Co., Bad Wildbad, Germany) with excitation and emission wavelengths of 485 and 530 nm, respectively. Trolox was used as the reference control.
Since it has been reported that reactive oxygen species (ROS) are concerned in the regulation of melanogenesis, we examined the ROS scavenging activities of analogs 1–8 using DCFH-DA (2′,7′-dichlorodihydrofluorescein diacetate) and esterase. Trolox and SIN–1 (3-morpholinosydnonimine) were used as the positive control and a ROS generator, respectively. Hydrolysis of DCFA-DA by esterase generates DCFH (2′,7′-dichlorodihydrofluorescein), which reacts with ROS generated by SIN–1 to produce the fluorescent compound DCF (2′,7′-dichlorofluorescein). Thus, ROS scavenging activities of analogs were assessed by measuring DCF fluorescence. […] Test samples including Trolox were treated at three different concentrations (5, 10, or 20 µM).

SMILES: O=C1/C(=C/c2ccc(O)c(O)c2)SC(=S)N1C1CCCCC1 [Analog 2, (Z)-3-Cyclohexyl-5-(3,4-dihydroxybenzylidene)-2-thioxothiazolidin-4-one]
- DPPH radical scavenging activity [1]: 92%
- cytotoxicity in B16F10 cells, 24 h ([2]; 1, 2, 5, 10, 20 µM, 24 h): cytotoxic at 20 µM
- cytotoxicity in B16F10 cells, 48 h and 72 h ([2]; 1, 2, 5, 10, 20 µM, 48 h and 72 h): cytotoxic at all concentrations
- IC50 (mushroom tyrosinase [3]): 39.7 ± 3.43 µM
- mode of mushroom tyrosinase inhibition (mushroom tyrosinase [4]; Lineweaver–Burk plots): competitively
- Vmax (mushroom tyrosinase [4]; Lineweaver–Burk plots, L-tyrosine, independent of analog 2 concentration (0, 5, 10, 20 µM)): 0.00343 mM/min
- Ki (mushroom tyrosinase [4]; L-tyrosine): 2.22 µM
- ROS scavenging [5]: significantly and concentration-dependently scavenged ROS
- ROS scavenging compared with Trolox [5]: more potently than Trolox

SMILES: O=C1/C(=C/c2ccc(O)cc2O)SC(=S)N1C1CCCCC1 [Analog 3, (Z)-3-Cyclohexyl-5-(2,4-dihydroxybenzylidene)-2-thioxothiazolidin-4-one]
- DPPH radical scavenging activity [1]: 73%
- cytotoxicity in B16F10 cells, any concentration or time ([2]; 1, 2, 5, 10, 20 µM, 24, 48, 72 h): not cytotoxic
- IC50 (mushroom tyrosinase [3]): 10.6 ± 2.92 µM
- mode of mushroom tyrosinase inhibition (mushroom tyrosinase [4]; Lineweaver–Burk plots): non-competitive
- Km (mushroom tyrosinase [4]; Lineweaver–Burk plots, L-tyrosine, independent of analog 3 concentration (0, 1, 2, 4 µM)): 2810 µM
- Ki (mushroom tyrosinase [4]; L-tyrosine): 1.27 µM
- ROS scavenging [5]: significantly and concentration-dependently scavenged ROS
- ROS scavenging compared with Trolox [5]: more potently than Trolox

Reference: paper PMC9598926, “Design and Synthesis of (Z)-5-(Substituted benzylidene)-3-cyclohexyl-2-thioxothiazolidin-4-one Analogues as Anti-Tyrosinase and Antioxidant Compounds: In Vitro and In Silico Insights” (Antioxidants, 2022)
